In US20090118314A1, “TUMOR SUPPRESSOR” (JAPAN AS REPRESENTED BY DIRECTOR GENERAL OF AGENCY CENTER, priority 2006, published 2009):

How the values were obtained:
[1] = biological target: PAI-1 (Homo sapiens, UniProt P05121); experiment: PAI-1 inhibitory activity using synthetic substrate S-2288; assay type: biochemical
Excerpt: PAI-1 inhibitory activity can be measured using a synthetic substrate S-2288 according to the methods described in International Publication WO04/011442 pamphlet, International Publication WO04/10996 pamphlet, JP-A-2004-250401, etc.

[2] = tested on: Min mice; experiment: Cancer suppression test (intestinal polyp development) in Min mice; assay type: in vivo; conditions: male Min mice, 100 ppm in feed, sacrificed at 15 weeks old
Excerpt: That is to say, the inventors used, as a test system, familial adenomatous polyposis (FAP) model mice (Apc gene hetero-deficient mice) belonging to a high risk group of large intestinal cancer. These model mice have two characteristics. […] Thus, this mouse can be used as an experimental animal model useful for examining the relationship between a hyperlipidemia condition and large intestinal cancer. In this test, based on the fact that expression of PAI-1 was increased in the polyps of FAP patients and that expression of PAI-1 was induced by triglyceride, the action of suppressing the development of intestinal polyps of a PAI-1-inhibiting compound was evaluated using Min mice that were one type of Apc gene-deficient mice.
5-week-old male Min mice (CLEA Japan, Inc.) were purchased. After giving a basic feed (AIN-76A) to the mice for 1 week, 100 ppm of a test substance was mixed into the feed, and the mixed feed was then given to the mice. On the other hand, in the case of wild-type mice also, the same amount of the test substance was mixed into the feed, and the mixed feed was then given to the wild-type mice. The body weight and the feed intake were measured every week. The mice were sacrificed under anesthesia, when they were 15 weeks old. Then, the weights of main organs (spleen and heart) were measured. Small intestine and large intestine were washed and were then excised in a longitudinal direction, followed by fixing with formalin. The number of intestinal polyps in the small intestine and large intestine were counted and the size thereof were measured under a stereoscopic microscope.

Sequence of PAI-1 (P05121 24-402, species assumed): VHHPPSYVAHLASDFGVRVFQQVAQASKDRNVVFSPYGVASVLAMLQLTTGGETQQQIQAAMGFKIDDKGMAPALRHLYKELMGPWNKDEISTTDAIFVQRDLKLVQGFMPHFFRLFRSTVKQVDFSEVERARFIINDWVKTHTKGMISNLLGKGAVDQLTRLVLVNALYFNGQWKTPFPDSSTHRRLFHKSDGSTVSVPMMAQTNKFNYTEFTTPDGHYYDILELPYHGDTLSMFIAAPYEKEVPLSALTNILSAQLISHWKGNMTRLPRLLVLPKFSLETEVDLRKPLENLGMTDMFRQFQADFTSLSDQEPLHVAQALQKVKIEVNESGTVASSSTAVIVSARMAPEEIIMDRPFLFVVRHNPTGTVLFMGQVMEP

Row | Compound | IC50 [1] | other results
1 | O=C(O)C(CCCCCOc1ccc2cc(-c3nc4ccc(OCC5CCCCC5)cc4o3)ccc2c1)C(=O)O [compound 23, [5-[[6-[6-(cyclohexylmethoxy)-2-benzoxazolyl]-2-naphthalenyl]oxy]pentyl]propanedioic acid] | 390 nM | 
2 | CC(C)(C)c1cc(OCc2ccccc2Cl)nc(-c2ccc3cc(OCCCCCC(C(=O)O)C(=O)O)ccc3c2)n1 [compound 50, [5-[[6-[4-[(2-chlorophenyl)methoxy]-6-(1,1-dimethylethyl)-2-pyrimidinyl]-2-naphthalenyl]oxy]pentyl]propanedioic acid] | 220 nM | 
3 | CC(C)(C)c1cc(OCC2CCCCC2)nc(-c2ccc3cc(OCCCCCC(C(=O)O)C(=O)O)ccc3c2)n1 [compound 48, [5-[[6-[4-cyclohexylmethoxy-6-(1,1-dimethylethyl)-2-pyrimidinyl]-2-naphthalenyl]oxy]pentyl]propanedioic acid] | 320 nM | 
4 | Cc1ccc(-c2nc(-c3ccc4cc(OCCCCCC(C(=O)O)C(=O)O)ccc4c3)oc2-c2ccc(C)cc2)cc1 [compound 7, [5-[[6-[4,5-bis(4-methylphenyl)-2-oxazolyl]-2-naphthalenyl]oxy]pentyl]propanedioic acid] | 590 nM | 
5 | CC(C)(C)c1cc(OCc2ccc(F)cc2)nc(-c2ccc3cc(OCCCCCC(C(=O)O)C(=O)O)ccc3c2)n1 [compound 49, [5-[[6-[4-(1,1-dimethylethyl)-6-[(4-fluorophenyl)methoxy]-2-pyrimidinyl]-2-naphthalenyl]oxy]pentyl]propanedioic acid] | 290 nM | 
6 | CC(C)(C)c1ccc2oc(-c3ccc4cc(OCCCCCC(C(=O)O)C(=O)O)ccc4c3)nc2c1 [Compound No. 20, [5-[[6-[5-(1,1-dimethylethyl)-2-benzoxazolyl]-2-naphthalenyl]oxy]pentyl]propanedioic acid] | 440 nM | development of intestinal polyps in the proximal portion of small intestine [2]: suppressed particularly strongly; distribution of the polyp size [2]: a decrease in the size was observed overall; polyps with a diameter size of 1 mm or less [2]: significantly decreased; weight of heart (indicator of anemia caused by bleeding associated with intestinal polyps) [2]: significantly reduced; weight of spleen (indicator of anemia caused by bleeding associated with intestinal polyps) [2]: significantly reduced; total number of polyps per mouse, decreased to ([2]; small and large intestine): approximately 66%
7 | O=C(O)C(CCCOc1ccc2cc(-c3nc4cc(-c5ccccc5)ccc4o3)ccc2c1)C(=O)O [compound 13, [3-[[6-(5-phenyl-2-benzoxazolyl)-2-naphthalenyl]oxy]propyl]propanedioic acid] | 540 nM | 
8 | O=C(O)C(CCCCCOc1ccc2cc(-c3nc4ccc(OCc5ccccc5)cc4o3)ccc2c1)C(=O)O [compound 24, [5-[[6-[6-(phenylmethoxy)-2-benzoxazolyl]-2-naphthalenyl]oxy]pentyl]propanedioic acid] | 540 nM | 
9 | O=C(O)C(CCCCCOc1ccc2cc(-c3nc(OCc4ccccc4)cc(-c4ccccc4)n3)ccc2c1)C(=O)O [compound 47, [5-[[6-[4-phenyl-6-(phenylmethoxy)-2-pyrimidinyl]-2-naphthalenyl]oxy]pentyl]propanedioic acid] | 350 nM | 
10 | COc1ccc(-c2cc(OCc3ccccc3F)nc(-c3ccc4cc(OCCCC(C(=O)O)C(=O)O)ccc4c3)n2)cc1 [compound 43, [3-[[6-[4-[(2-fluorophenyl)methoxy]-6-(4-methoxyphenyl)-2-pyrimidinyl]-2-naphthalenyl]oxy]propyl]propanedioic acid] | 860 nM | 
11 | O=C(O)C(CCCCCOc1ccc2cc(-c3nc(-c4ccccc4)c(-c4ccccc4)o3)ccc2c1)C(=O)O [compound 6, [5-[[6-(4,5-diphenyl-2-oxazolyl)-2-naphthalenyl]oxy]pentyl]propanedioic acid] | 940 nM | 
